23 compounds from US11970498B2, “CDK2 inhibitors” (BLUEPRINT MEDICINES CORPORATION, priority 2021, dated 2024) can be followed below.

Structures are written as SMILES. pIC50: −log10 of the molar value.

One assay deals with T1, CDK1/Cyclin B1, GST-tag (Homo sapiens, UniProt P06493).
T1 construct: GST
Nature of the assay: CDK1/Cyclin B1 biochemical phosphorylation assay (Caliper mobility shift). The settings on record: apparent IC50; 1.0 mM ATP or ATP Km; 1.5 nM enzyme; 25° C. In short, it runs like this:
(§1)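 7.5 µM 5-FAM-QSPKKG-CONH2 peptide phosphorylated by CDK2/Cyclin E (1.25 nM) or GST-CDK1/Cyclin B1 (1.5 nM) at 1.0 mM ATP or ATP Km, in HEPES pH 7.5, MgCl2, Brij-35, DTT, 1% DMSO, 25 °C to 10–20% conversion. EDTA stop; Caliper mobility-shift readout; apparent IC50 from percent activity vs log concentration.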

A further assay concerns the target CDK2/Cyclin E (Homo sapiens, UniProt P24941). Nature of the assay: CDK2/Cyclin E biochemical phosphorylation assay (Caliper mobility shift). The note with it: apparent IC50; 1.0 mM ATP or ATP Km; 1.25 nM enzyme; 25° C.; read-out: CDK2/cyclin E1 IC50. The essentials: as §1

T1 sequence (P06493 whole entry): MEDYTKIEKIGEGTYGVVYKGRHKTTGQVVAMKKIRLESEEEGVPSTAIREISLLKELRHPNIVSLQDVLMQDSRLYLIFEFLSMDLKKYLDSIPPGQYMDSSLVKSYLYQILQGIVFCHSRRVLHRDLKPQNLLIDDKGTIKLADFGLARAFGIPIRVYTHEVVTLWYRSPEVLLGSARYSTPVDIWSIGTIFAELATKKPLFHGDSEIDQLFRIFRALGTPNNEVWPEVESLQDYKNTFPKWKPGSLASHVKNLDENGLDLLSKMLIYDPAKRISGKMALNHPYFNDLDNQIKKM
T1 sequence (P14635 whole entry partner): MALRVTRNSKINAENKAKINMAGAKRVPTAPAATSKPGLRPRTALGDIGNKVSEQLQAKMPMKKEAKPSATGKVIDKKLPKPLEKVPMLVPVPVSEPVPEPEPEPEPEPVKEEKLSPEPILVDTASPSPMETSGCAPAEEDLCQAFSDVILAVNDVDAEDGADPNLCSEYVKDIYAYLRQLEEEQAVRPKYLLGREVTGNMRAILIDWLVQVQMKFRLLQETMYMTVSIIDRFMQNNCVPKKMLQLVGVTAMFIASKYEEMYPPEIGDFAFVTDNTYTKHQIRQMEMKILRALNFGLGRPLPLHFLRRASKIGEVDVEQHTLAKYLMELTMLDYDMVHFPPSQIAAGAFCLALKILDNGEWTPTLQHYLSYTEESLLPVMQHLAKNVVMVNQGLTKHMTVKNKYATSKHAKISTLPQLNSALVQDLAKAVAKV

On to `FC(F)Oc1cc(Nc2cnc3cnn([C@H](c4ccccc4)C4COC4)c3n2)n[nH]1` (single isomer, unassigned) [Example 161, (S)-N-(5-(difluoromethoxy)-1H-pyrazol-3-yl)-1-(oxetan-3-yl(phenyl)methyl)-1H-pyrazolo[3,4-b]pyrazin-6-amine or (R)-N-(5-(difluoromethoxy)-1H-pyrazol-3-yl)-1-(oxetan-3-yl(phenyl)methyl)-1H-pyrazolo[3,4-b]pyrazin-6-amine], for which the pIC50 on CDK1/Cyclin B1, GST-tag is not above 6.30; on CDK2/Cyclin E it was 7.00 to 7.52.
Regarding `FC(F)Oc1cc(Nc2cnc3cnn(CC4(C(F)F)CCOCC4)c3n2)n[nH]1` [Example 122, N-(5-(difluoromethoxy)-1H-pyrazol-3-yl)-1-((4-(difluoromethyl)tetrahydro-2H-pyran-4-yl)methyl)-1H-pyrazolo[3,4-b]pyrazin-6-amine], the pIC50 was not above 6.30 on CDK1/Cyclin B1, GST-tag and 7.52 to 7.70 on CDK2/Cyclin E.
On to `FC(F)Oc1cc(Nc2cnc3cnn(C[C@H]4CCOC4)c3n2)n[nH]1` (single isomer, unassigned) [Example 143, (R)-N-(5-(difluoromethoxy)-1H-pyrazol-3-yl)-1-((tetrahydrofuran-3-yl)methyl)-1H-pyrazolo[3,4-b]pyrazin-6-amine or (S)-N-(5-(difluoromethoxy)-1H-pyrazol-3-yl)-1-((tetrahydrofuran-3-yl)methyl)-1H-pyrazolo[3,4-b]pyrazin-6-amine], for which the pIC50 was not above 6.30 on CDK1/Cyclin B1, GST-tag and 7.70 to 8.00 at CDK2/Cyclin E.
The like results for `FC[C@@H](c1cccnc1)n1ncc2ncc(Nc3cc(OC(F)F)[nH]n3)nc21` (single isomer, unassigned) [Example 19, (R)—N-(5-(difluoromethoxy)-1H-pyrazol-3-yl)-1-(2-fluoro-1-(pyridin-3-yl)ethyl)-1H-pyrazolo[3,4-b]pyrazin-6-amine or (S)—N-(5-(difluoromethoxy)-1H-pyrazol-3-yl)-1-(2-fluoro-1-(pyridin-3-yl)ethyl)-1H-pyrazolo[3,4-b]pyrazin-6-amine] were, in that order, 6.30 to 7.00 and not below 8.00.
The like results for `CC[C@@H]([C@H](C)O)n1ncc2ncc(Nc3cc(OC(F)F)[nH]n3)nc21` (single isomer, unassigned) [Example 6, (2S,3S)-3-(6-((5-(difluoromethoxy)-1H-pyrazol-3-yl)amino)-1H-pyrazolo[3,4-b]pyrazin-1-yl)pentan-2-ol or (2S,3R)-3-(6-((5-(difluoromethoxy)-1H-pyrazol-3-yl)amino)-1H-pyrazolo[3,4-b]pyrazin-1-yl)pentan-2-ol] were, in that order, not above 6.30 and 7.00 to 7.52.
Regarding `FC(F)Oc1cc(Nc2cnc3cnn(CC4CCC(F)(F)CC4)c3n2)n[nH]1` [Example 108, 1-((4,4-difluorocyclohexyl)methyl)-N-(5-(difluoromethoxy)-1H-pyrazol-3-yl)-1H-pyrazolo[3,4-b]pyrazin-6-amine], the pIC50 on CDK1/Cyclin B1, GST-tag is not above 6.30; at CDK2/Cyclin E it was not below 8.00.
The like results for `OC[C@@H](c1ccccc1)n1ncc2ncc(Nc3cc(OC(F)F)[nH]n3)nc21` [Example 203, (R)-2-(6-((5-(difluoromethoxy)-1H-pyrazol-3-yl)amino)-1H-pyrazolo[3,4-b]pyrazin-1-yl)-2-phenylethan-1-ol] were, in that order, not above 6.30 and 7.00 to 7.52.
Taken in the same sequence, the figures for `Fc1cncc(Cn2ncc3ncc(Nc4cc(OC(F)F)[nH]n4)nc32)c1` [Example 42, N-(5-(difluoromethoxy)-1H-pyrazol-3-yl)-1-((5-fluoropyridin-3-yl)methyl)-1H-pyrazolo[3,4-b]pyrazin-6-amine] were not above 6.30 and 7.52 to 7.70.
The like results for `C[C@@H]([C@H]1CCCOC1)n1ncc2ncc(Nc3cc(OC(F)F)[nH]n3)nc21` (single isomer, unassigned) [Example 215] were, in that order, more than 7.00 and not below 8.00.
Regarding `O[C@H]1C[C@H](Cn2ncc3ncc(Nc4cc(OC(F)F)[nH]n4)nc32)C1` [Example 220, (1r,3r)-3-((6-((5-(difluoromethoxy)-1H-pyrazol-3-yl)amino)-1H-pyrazolo[3,4-b]pyrazin-1-yl)methyl)cyclobutan-1-ol], the pIC50 on CDK1/Cyclin B1, GST-tag is not above 6.30; at CDK2/Cyclin E, 7.00 to 7.52.
The like results for `COc1cc(Nc2cnc3cnn([C@@H](C(F)F)C4CCOCC4)c3n2)n[nH]1` (single isomer, unassigned) [Example 193, (S)-1-(2,2-difluoro-1-(tetrahydro-2H-pyran-4-yl)ethyl)-N-(5-methoxy-1H-pyrazol-3-yl)-1H-pyrazolo[3,4-b]pyrazin-6-amine or (R)-1-(2,2-difluoro-1-(tetrahydro-2H-pyran-4-yl)ethyl)-N-(5-methoxy-1H-pyrazol-3-yl)-1H-pyrazolo[3,4-b]pyrazin-6-amine] were, in that order, not above 6.30 and 7.70 to 8.00.
Take `FC(F)Oc1cc(Nc2cnc3cnn(CC45CCC(CC4)OC5)c3n2)n[nH]1` [Example 118, 1-((2-oxabicyclo[2.2.2]octan-4-yl)methyl)-N-(5-(difluoromethoxy)-1H-pyrazol-3-yl)-1H-pyrazolo[3,4-b]pyrazin-6-amine]: the pIC50 at CDK1/Cyclin B1, GST-tag is 6.30 to 7.00; at CDK2/Cyclin E, not below 8.00.
Taken in the same sequence, the figures for `COc1cc(Nc2cnc3cnn([C@@H](C)c4cncs4)c3n2)n[nH]1` [Example 74, (S)-N-(5-methoxy-1H-pyrazol-3-yl)-1-(1-(thiazol-5-yl)ethyl)-1H-pyrazolo[3,4-b]pyrazin-6-amine] were not above 6.30 and 7.52 to 7.70.
`Fc1nn(Cc2cccnc2)c2nc(Nc3cc(OC(F)F)[nH]n3)cnc12` [Example 120, N-(5-(difluoromethoxy)-1H-pyrazol-3-yl)-3-fluoro-1-(pyridin-3-ylmethyl)-1H-pyrazolo[3,4-b]pyrazin-6-amine]: the pIC50 on CDK1/Cyclin B1, GST-tag was not above 6.30; on CDK2/Cyclin E, not below 8.00.
Taken in the same sequence, the figures for `C[C@H](c1cc(F)ccn1)n1ncc2ncc(Nc3cc(OC(F)F)[nH]n3)nc21` (single isomer, unassigned) [Example 14, (R)—N-(5-(difluoromethoxy)-1H-pyrazol-3-yl)-1-(1-(4-fluoropyridin-2-yl)ethyl)-1H-pyrazolo[3,4-b]pyrazin-6-amine or (S)—N-(5-(difluoromethoxy)-1H-pyrazol-3-yl)-1-(1-(4-fluoropyridin-2-yl)ethyl)-1H-pyrazolo[3,4-b]pyrazin-6-amine] were not above 6.30 and 7.70 to 8.00.
Taken in the same sequence, the figures for `FC(F)Oc1cc(Nc2cnc3cnn(Cc4cccnn4)c3n2)n[nH]1` [Example 222, N-(5-(difluoromethoxy)-1H-pyrazol-3-yl)-1-(pyridazin-3-ylmethyl)-1H-pyrazolo[3,4-b]pyrazin-6-amine] were not above 6.30 and not below 8.00.
The like results for `C[C@@H]([C@@H]1COCCO1)n1ncc2ncc(Nc3cc(OC(F)F)[nH]n3)nc21` (single isomer, unassigned) [Example 211] were, in that order, not above 6.30 and 7.00 to 7.52.
For the compound `Fc1ncccc1Cn1ncc2ncc(Nc3cc(OC(F)F)[nH]n3)nc21` [Example 7, N-(5-(difluoromethoxy)-1H-pyrazol-3-yl)-1-((2-fluoropyridin-3-yl)methyl)-1H-pyrazolo[3,4-b]pyrazin-6-amine], the pIC50 on CDK1/Cyclin B1, GST-tag is 6.30 to 7.00; on CDK2/Cyclin E, not below 8.00.
For `CC[C@@H]([C@@H](C)O)n1ncc2ncc(Nc3cc(OC(F)F)[nH]n3)nc21` (single isomer, unassigned) [Example 201, (2R,3S)-3-(6-((5-(difluoromethoxy)-1H-pyrazol-3-yl)amino)-1H-pyrazolo[3,4-b]pyrazin-1-yl)pentan-2-ol or (2R,3R)-3-(6-((5-(difluoromethoxy)-1H-pyrazol-3-yl)amino)-1H-pyrazolo[3,4-b]pyrazin-1-yl)pentan-2-ol], the pIC50 on CDK1/Cyclin B1, GST-tag was not above 6.30; at CDK2/Cyclin E, less than 7.00.
Taken in the same sequence, the figures for `N#CCC1(Cn2ncc3ncc(Nc4cc(OC(F)F)[nH]n4)nc32)CC1` [Example 132, 2-(1-((6-((5-(difluoromethoxy)-1H-pyrazol-3-yl)amino)-1H-pyrazolo[3,4-b]pyrazin-1-yl)methyl)cyclopropyl)acetonitrile] were not above 6.30 and 7.00 to 7.52.
The like results for `FC[C@H](c1cccnc1)n1ncc2ncc(Nc3cc(OC(F)F)[nH]n3)nc21` (single isomer, unassigned) [Example 18, (S)—N-(5-(difluoromethoxy)-1H-pyrazol-3-yl)-1-(2-fluoro-1-(pyridin-3-yl)ethyl)-1H-pyrazolo[3,4-b]pyrazin-6-amine or (R)—N-(5-(difluoromethoxy)-1H-pyrazol-3-yl)-1-(2-fluoro-1-(pyridin-3-yl)ethyl)-1H-pyrazolo[3,4-b]pyrazin-6-amine] were, in that order, not above 6.30 and 7.52 to 7.70.
Consider `Fc1ccc(Cn2ncc3ncc(Nc4cc(OC(F)F)[nH]n4)nc32)cc1` [Example 40, N-(5-(difluoromethoxy)-1H-pyrazol-3-yl)-1-(4-fluorobenzyl)-1H-pyrazolo[3,4-b]pyrazin-6-amine], for which the pIC50 at CDK1/Cyclin B1, GST-tag was not above 6.30; on CDK2/Cyclin E, 7.70 to 8.00.
The like results for `N#C[C@@H]1C[C@H]1Cn1ncc2ncc(Nc3cc(OC(F)F)[nH]n3)nc21` (single isomer, unassigned) [Example 26, (1R,2R)-2-((6-((5-(difluoromethoxy)-1H-pyrazol-3-yl)amino)-1H-pyrazolo[3,4-b]pyrazin-1-yl)methyl)cyclopropane-1-carbonitrile or (1S,2S)-2-((6-((5-(difluoromethoxy)-1H-pyrazol-3-yl)amino)-1H-pyrazolo[3,4-b]pyrazin-1-yl)methyl)cyclopropane-1-carbonitrile] were, in that order, not above 6.30 and less than 7.00.
